Assay results reported in patent publication US5866617A, “Formulations and methods of use 2,2'-dithio-bis-esthane sulfonate” (BioNumerik Pharmaceuticals, Inc., priority 1997, dated 1999).

Columns and labels:
[1] = Stability of 2,2'-dithio-bis-ethane sulfonate in acidic and basic aqueous media (proton NMR); format: physicochemical
Method: The stability of 2,2'-dithio-bis-ethane sulfonate at room temperature was determined at pH ranges of 1.5 to 9.0.
The stability of 2,2'-dithio-bis-ethane sulfonate in acidic and basic aqueous media can be studied as described in this example. In a typical experiment, 50 mg of 2,2'-dithio-bis-ethane sulfonate (as produced by using the above described method) was dissolved in one ml of water and the pH of the solution adjusted to 1.5, 2.0, 3.0, 4.0, 5.0 and 6.0 by adding 1N hydrochloric acid in water or the pH adjusted to 8.0, 9.0, 10.0 or 11.0 by adding 1N sodium hydroxide in water. The reaction mixture was then stirred for 24 hours at room temperature, the water was removed at reduced pressure, dissolved in spectral grade D2 O, and the proton NMR spectrum was recorded.
The stability of 2,2'-dithio-bis-ethane sulfonate at pH 1.5 is further studied by heating the reaction mixture to 100 degrees Celsius for 10 minutes.

[2] = test system: Fischer rats; assay: Protection against cisplatin induced nephrotoxicity in Fischer rats (day 5 serum creatinine and BUN); format: in vivo
Method: FIG. 1. Serum Creatinine Values on Day 5 Post Treatment with i.v. Cisplatin (6 mg/kg) With or Without Increasing Doses of i.v. 2,2'-Dithio-Bis-Ethane Sulfonate (BNP7787).
FIG. 2. Serum BUN (Blood Urea Nitrogen) Values on Day 5 Post Treatment with i.v. Cisplatin (6 mg/kg) With or Without Increasing Doses of i.v. 2,2'-Dithio-Bis-Ethane Sulfonate (BNP7787).
(§1) The data from these studies are shown below in FIGS. 1 and 2. Under Good Laboratory Practice (GLP) conditions, Fischer rats (10 rats per treatment group) were treated with or without escalating doses of BNP7787 (up to 1000 mg/kg) administered by i.v. injection with a nephrotoxic dose of cisplatin (6 mg/kg). Serum BUN (FIG. 2) and Creatinine (FIG. 1) values were measured on day 5 and the animals were weighed daily. […] The mean day 5 WBC levels of rats treated with higher doses of 2,2'-dithio-bis-ethane sulfonate, namely the 333 mg/kg and 1,000 mg/kg treatment groups, are approximately 6,800 and 6,200, respectively. These mean WBC values are within 15% of the WBC values for untreated controls. The day 5 mean WBC counts for the cisplatin only and low dose (37 mg/kg) 2,2'-dithio-bis-ethane sulfonate treatment groups are approximately 4,800 and 4,500, respectively and represent a 32% to 36% reduction in the day 5 mean WBC from the untreated control group. The Fischer rat model is highly correlated with cisplatin induced nephrotoxicity in humans and is thus an excellent animal model to support the utility of 2,2'-dithio-bis-ethane sulfonate to protect against cisplatin induced nephrotoxicity in humans.

[3] = Body weight change in tumor bearing Fischer rats
Method: FIG. 4. Weight Change in Tumor Bearing Fischer Rats Treated with Parenteral Cisplatin (6 mg/kg or 9 mg/kg) and 2,2'-Dithio-Bis-Ethane Sulfonate (BNP7787 @ 1,000 mg/kg).
The antitumor activity and toxicity, as measured by weight changes estimated by changes in tumor volumes and animal weights, respectively, of escalating doses of parenterally (intravenously) administered cisplatin (6 mg/kg and 9 mg/kg) with or without substantially contemporaneously intravenously administered BNP7787 (1000 mg/kg) was investigated in Fischer rats bearing subcutaneous established (~3.0 g) WARD colon cancer.

[4] = test system: WARD colon cancer; assay: Antitumor activity in Fischer rats bearing subcutaneous WARD colon cancer; format: in vivo
Method: Antitumor Response of Tumor Bearing Fischer Rats Treated with Parenteral Cisplatin (6 mg/kg or 9 mg/kg) and 2,2'-Dithio-Bis-Ethane Sulfonate (BNP7787 @ 1000 mg/kg).

[5] = test system: Fischer rats; assay: Protection against cisplatin induced myelosuppression in Fischer rats (day 5 WBC); format: in vivo; conditions: for deviation of mean WBC from untreated controls: day 5
Method: FIG. 3. Total WBC Values on Day 5 Post Treatment with i.v. Cisplatin (6 mg/kg) With or Without Increasing Doses of i.v. 2,2'-Dithio-Bis-Ethane Sulfonate (BNP7787).
as §1

[6] = Solubility in sterile water and 0.9% sodium chloride solution, pH 7.15 (tyndall effect); format: physicochemical; conditions: water and 0.9% nacl, read-out: concentrations at which soluble
Method: 1 ml of 0.9% sodium chloride solution was then distributed in each of a second set of six sterilized 10 ml vials. The 0.9% sodium chloride solution was obtained by dissolving 9 mg of USP grade sodium chloride in sterile HPLC grade water using an agitator.

[7] = physchem; conditions: water
Method: In this example, 10 grams of the disodium salt of 2,2'-dithio-bis-ethane sulfonate was dissolved in 50 ml of sterile HPLC grade water and the pH of the solution was readjusted to a pH of 7.0 using 1N hydrochloric acid. The resulting solution was then passed through a 0.2 micron syringe filter into an autoclaved round bottom flask (250 ml). This sterile solution was then freeze dried (lyophilized) to a white crystalline powder. The lyophilized powder was then used for the following solubility studies.
1 ml of sterile HPLC grade water was distributed in each of ten sterilized 10 ml vials. […] Each vial was first observed at room temperature for a period of approximately 15 minutes, and then heated to a temperature of 37° C. for a period of at least 15 minutes.

[8] = human, in vivo, cited from earlier work
[9] = in vivo; cited from earlier work
[10] = test system: rats; conditions: single i.p. dose of 3 mg cisplatin/kg, cited from earlier work
[11] = rat, in vivo, iv, 180 min; cited from earlier work
[12] = test system: cancer patients; conditions: cited from earlier work
[13] = BNP7787 1000 mg/kg i.v. with cisplatin 6 mg/kg and 9 mg/kg
[14] = BNP7787 37 mg/kg with cisplatin 6 mg/kg
[15] = BNP7787 333 mg/kg with cisplatin 6 mg/kg
[16] = BNP7787 1,000 mg/kg with cisplatin 6 mg/kg

## O=S(=O)([O-])CCSSCCS(=O)(=O)[O-].[Na+].[Na+]
[1]; pH 1.5, 100 degrees Celsius, 10 minutes
  change in proton spectrum on heating: No change in the proton spectrum
[1]; room temperature, 24 hours, listed as 2,2'-dithio-bis-ethane sulfonate
  pH range in which stable: 1.0-11.0
[2]; BNP7787 37 mg/kg with cisplatin 6 mg/kg i.v.
  nephrotoxicity (plasma BUN and creatinine levels and histopathology) relative to cisplatin only: slight increase in nephrotoxicity
[2]; BNP7787 333 mg/kg i.v. with cisplatin 6 mg/kg i.v.
  renal protection (day 5 creatinine and BUN): 100%
[2]; BNP7787 1000 mg/kg i.v. with cisplatin 6 mg/kg i.v.
  renal protection (day 5 creatinine and BUN): 100%
[2]; escalating i.v. doses up to 1000 mg/kg with cisplatin 6 mg/kg
  dose-response effect in renal protection: clear dose-response effect
[3]; [13]
  mean weights compared with all other treatment groups: greater mean weights than all other treatment groups
  protection against renal damage as measured by weight loss: clearly protective against renal damage
[4]; BNP7787 1000 mg/kg i.v. with cisplatin 6 mg/kg or 9 mg/kg
  potentiation of cisplatin antitumor activity: potentiation of cisplatin antitumor activity
[4]; BNP7787 without cisplatin
  intrinsic antitumor activity: lacks intrinsic antitumor activity
[4]; cisplatin 6 mg/kg immediately followed by BNP7787 1,000 mg/kg i.v.
  median tumor weight at maximum reduction (from 3,000 mg): less than 300 mg
[4]; cisplatin 9 mg/kg immediately followed by BNP7787 1,000 mg/kg i.v.
  median tumor weight at maximum reduction (from 3,000 mg): < 100 mg
[4]; substantially contemporaneous administration with cisplatin
  effect on antitumor activity of cisplatin (abrogation): does not abrogate the antitumor activity of cisplatin
[5]; [14]
  mean day 5 WBC: ~4,500
  reduction in day 5 mean WBC from the untreated control group: 36%
[5]; [15]
  mean day 5 WBC: approximately 6,800
  deviation of mean WBC from untreated controls: ≤ 15%
[5]; [16]
  mean day 5 WBC: ~6,200
  deviation of mean WBC from untreated controls: ≤ 15%
[5]; escalating BNP7787 doses with cisplatin 6 mg/kg
  protective effect against cisplatin induced myelosuppression (WBC): dose-dependent protective effect
[6]
  solubility: 100 to 320 mg/mL
[7]
  solubility: 10.5 to 102 mg/mL

## O=S(=O)([O-])CCS.[Na+]
[8]; iv, 20 mg/kg
  dose appearing as thiol groups in the urine: about 48%
[8]; po
  dose excreted in the urine as reactive thiol groups: approximately 52%
[8]
  minimum concentration presumed to still be protective: 100 µg/mL
[9]
  administered mesna dose found in the urine in the form of mesna (reactive thiol): approximately 45%
[10]; low doses of mesna
  protection of kidneys from renal damage: only partially protected
[10]; per os mesna
  prevention of renal damage: complete prevention of renal damage
[11]
  administered dose recovered in the urine: over 80%

## N.N.[Cl][Pt][Cl] [cisplatin, cis-diammine dichloro platinum, reference compound]
[3]; cisplatin alone, 6 mg/kg and 9 mg/kg, at 6 days
  loss of body weight: up to 8%
[4]; cisplatin only 6 mg/kg i.v.
  median tumor weight at maximum reduction (from 3,000 mg): 700 mg
[4]; cisplatin only 9 mg/kg i.v.
  median tumor weight at maximum reduction (from 3,000 mg): 500 mg
[5]; cisplatin only 6 mg/kg
  mean day 5 WBC: approximately 4,800
  reduction in day 5 mean WBC from the untreated control group: 32%

## O=S(O)(O)=S [thiosulfates, sodium thiosulfate]
[12]; thiosulfates by intravenous infusion
  increase of cisplatin dose per meter square that could be administered intraperitoneally: more than two fold
[12]; thiosulfates by the intravenous route
  renal toxicity of intraperitoneal cisplatin: renal toxicity could be prevented
